Results from patent publication US20170119776A1, “CHIRAL 2,5-DISUBSTITUTED CYCLOPENTANECARBOXYLIC ACID DERIVATIVES AND USE THEREOF” (BAYER PHARMA AKTIENGESELLSCHAFT, priority 2014, published 2017).

Key:
MMP-12 of the rat = target: T1, MMP-12 of the rat (Rattus norvegicus, UniProt Q63341); experiment: In vitro MMP-12 inhibition test of the rat; format: biochemical
T1 construct: MMP-12 of the rat (Uniprot NP_446415.1; construct L96-V277); made in house; host or cells: E. coli (BL21), pDEco7 vector
T1 sequence (Q63341 96-277): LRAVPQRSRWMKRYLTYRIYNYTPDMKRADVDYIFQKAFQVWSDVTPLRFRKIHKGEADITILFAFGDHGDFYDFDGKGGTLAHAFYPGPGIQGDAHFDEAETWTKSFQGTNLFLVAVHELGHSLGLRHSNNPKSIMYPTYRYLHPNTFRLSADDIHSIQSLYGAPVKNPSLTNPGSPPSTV
From the text: The activity strength of the compounds according to the invention towards other MMPs (and therefore their selectivity) is likewise ascertained in in vitro inhibition tests. The MMP-mediated amidolytic cleavage of a suitable peptide substrate also leads here to a fluorescent light increase. The signal intensity of the fluorescent light is directly proportional to the enzyme activity. The active concentration of a test compound at which half of the enzyme is inhibited (50% signal intensity of the fluorescent light) is given as IC50 value.
MMP-12 of the rat (Uniprot NP_446415.1; construct L96-V277) is expressed with an additional N-terminal His-Tag and a consecutive TEV cleavage sequence by means of a pDEco7 vector in E. coli (BL21). The thus recombinantly expressed protein forms an intracellular insoluble protein compartment (so-called inclusion body). This is solubilized after separation and intensive washing under denaturing conditions. For this, the inclusion body pellet fraction from a 250 ml E. coli culture is taken up in a volume of 120 ml of buffer A (50 mM Tris pH 7.4, 100 mM NaCl, 0.03 mM ZnCl2, 10 mM CaCl2, 8 M urea). The soluble protein is renatured by in each case dialysing 60 ml of the sample several times at 4-8° C. against buffer B (50 mM Tris pH 7.4, 100 mM NaCl, 0.03 mM ZnCl2, 10 mM CaCl2). After the dialysis, the sample is centrifuged (25 000×g). The folded-back protein is obtained in the supernatant with a yield of 3.7 mg per 250 ml E. coli culture. The thus obtained protein is enzymatically active without further purification operations or protease-mediated cleavage processes.
1 μl of the test compound to be analysed (as a solution in DMSO, suitable concentrations e.g. 1 nM to 30 μM) is pipetted into 24 μl of MMP-12 protein (final concentration e.g. 1 nM) in reaction buffer (50 mM Tris/HCl pH 7.5, 10 mM CaCl2, 150 mM NaCl, 0.05% Brij®-35) in a white 384-hole microtiter plate (MTP). The enzymatic reaction is started by adding the intramolecularly quenched substrate Mca-Pro-Leu-Gly-Leu-Dpa(Dnp)-Ala-Arg-NH2 (final concentration e.g. 5 μM; R&D Systems, ES-001), such that a total test volume of 50 μl results. The progress of the MMP-12 reaction is measured by measuring the fluorescence intensity (excitation 320 nm, emission 410 nm) over a suitable period (e.g. over 120 min at a temperature of 32° C.).
Tables 3A and 3B below give the IC50 values from these tests for the inhibition of rodent MMPs for representative embodiment examples of the present invention and also for two structurally related comparison compounds from the prior art (as racemate and separated enantiomer)→(in part as average values from several independent individual determinations and rounded to two significant places). The IC50 values were determined for racemates and enantiomers from differently generated DMSO stock solutions. Whereas an automatically created DMSO stock solution from the internal substance logistics was used for racemates by means of a standard method, in the case of enantiomers, in each case a freshly produced, manually prepared DMSO stock solution was used for a more precise direct comparison of the enantiomers with one another.

[1] = target: T2, human macrophage elastase (HME/hMMP-12) (Homo sapiens, UniProt P39900); experiment: In vitro HME inhibition test (standard / high-sensitivity), without BSA; format: biochemical; conditions: absence of serum albumin (BSA)
T2 construct: 0.5 nM HME; purchased R&D Systems 917-MP
T2 sequence (P39900 106-470): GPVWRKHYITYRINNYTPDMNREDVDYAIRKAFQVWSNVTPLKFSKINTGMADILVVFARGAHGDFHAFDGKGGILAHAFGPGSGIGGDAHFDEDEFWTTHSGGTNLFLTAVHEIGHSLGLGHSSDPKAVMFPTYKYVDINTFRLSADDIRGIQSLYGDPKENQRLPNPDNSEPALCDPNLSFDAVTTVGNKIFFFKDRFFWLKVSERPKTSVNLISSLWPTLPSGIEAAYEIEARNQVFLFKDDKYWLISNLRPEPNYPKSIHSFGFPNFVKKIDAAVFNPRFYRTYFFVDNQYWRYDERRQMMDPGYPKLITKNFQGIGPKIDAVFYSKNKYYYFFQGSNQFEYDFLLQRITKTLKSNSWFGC
From the text: The activity of the compounds according to the invention towards HME (MMP-12) is ascertained in an in vitro inhibition test. The HME-mediated amidolytic cleavage of a suitable peptide substrate leads herein to a fluorescent light increase. The signal intensity of the fluorescent light is directly proportional to the enzyme activity. The active concentration of a test compound at which half of the enzyme is inhibited (50% signal intensity of the fluorescent light) is given as IC50 value.
In a 384 hole microtiter plate, in a test volume of in total 41 μl of the test buffer (0.1 M HEPES pH 7.4, 0.15 M NaCl, 0.03 M CaCl2, 0.004 mM ZnCl2, […], 0.005% Brij®), the enzyme (0.5 nM HME; R&D Systems, 917-MP, autocatalytic activation according to the manufacturer's instructions) and the intramolecularly quenched substrate [5 μM Mca-Pro-Leu-Gly-Leu-Glu-Glu-Ala-Dap(Dnp)-NH2; Bachem, M-2670] are incubated in the absence and presence of the test substance (as solution in DMSO) for two hours at 37° C. The fluorescent light intensity of the test batches is measured (excitation 323 nm, emission 393 nm). The IC50 values are ascertained by plotting the fluorescent light intensity against the active ingredient concentration.
If subnanomolar IC values are produced for high potent test substances in the standard HME inhibition test described above, then a modified test is used for their more precise determination. Here, a ten-fold lower enzyme concentration is used (final concentration e.g. 0.05 nM), in order to achieve an increased sensitivity of the test. The incubation time of the test is accordingly chosen to be longer (e.g. 16 hours).
Table 1 below gives the IC50 values from these HME inhibition tests for the working examples of the present invention and also for two structurally related comparison compounds from the prior art (as racemate or separated enantiomers)→(sometimes as average values from several independent individual determinations and rounded to two significant places). The IC50 values were determined for racemates and enantiomers from differently generated DMSO stock solutions. Whereas an automatically created DMSO stock solution from the internal substance logistics was used for racemates by means of a standard method, for enantiomers and for a more precise direct comparison of the enantiomers with one another, in each case a freshly produced, manually prepared DMSO stock solution was used.

| SMILES | IC50 (MMP-12 of the rat) [nM] | IC50 [1] [nM] |
| --- | --- | --- |
| CCCCCOc1ccc(C(=O)CC(CCn2nnc3ccccc3c2=O)C(=O)O)cc1 (racemic) [Comparative Example B-1, (+/−)-4-Oxo-2-[2-(4-oxo-1,2,3-benzotriazin-3(4H)-yl)ethyl]-4-[4-(pentyloxy)phenyl]butanoic acid (racemate)] | 29.3 | 1.5 |
| CCCCCOc1ccc(C(=O)CC(CCn2nnc3ccccc3c2=O)C(=O)O)cc1 (single isomer, unassigned; enantiomer 1) [Comparative Example B-2, (+)-4-Oxo-2-[2-(4-oxo-1,2,3-benzotriazin-3(4H)-yl)ethyl]-4-[4-(pentyloxy)phenyl]butanoic acid (enantiomer 1)] | 24.5 | 1.6 |

Stronger by IC50 (MMP-12 of the rat), values ahead:

| IC50 (MMP-12 of the rat) [nM] | IC50 [1] [nM] | SMILES |
| --- | --- | --- |
| < 0.61 | 0.043 | O=C(O)[C@H]1[C@H](Cn2nnc3ccccc3c2=O)CC[C@@H]1C(=O)c1ccc(-c2ccc(Cl)cc2)cc1 (racemic) [Comparative Example A-1, (1RS,2RS,5SR)-2-[(4′-chlorobiphenyl-4-yl)carbonyl]-5-[(4-oxo-1,2,3-benzotriazin-3(4H)-yl)methyl]cyclopentanecarboxylic acid (racemate)] |
| < 1 | 0.059 | O=C(O)[C@H]1[C@H](Cn2nnc3ccccc3c2=O)CC[C@@H]1C(=O)c1ccc(OCc2ccccc2)cc1 (racemic) [Example 1, (+/−)-(1RS,2RS,5SR)-2-[4-(Benzyloxy)benzoyl]-5-[(4-oxo-1,2,3-benzotriazin-3(4H)-yl)methyl]cyclopentanecarboxylic acid (racemate)] |
| < 0.61 | 0.071 | O=C(O)[C@H]1[C@H](Cn2nnc3ccccc3c2=O)CC[C@@H]1C(=O)c1ccc(OCc2ccccc2)cc1 [Example 2, (+)-(1S,2S,5R)-2-[4-(Benzyloxy)benzoyl]-5-[(4-oxo-1,2,3-benzotriazin-3(4H)-yl)methyl]cyclopentanecarboxylic acid] |
| < 0.61 | 0.018 | O=C(O)[C@@H]1[C@@H](Cn2nnc3ccccc3c2=O)CC[C@H]1C(=O)c1ccc(-c2ccc(Cl)cc2)cc1 (single isomer, unassigned; enantiomer 2) [Comparative Example A-3, (1RS,2RS,5SR)-2-[(4′-Chlorobiphenyl-4-yl)carbonyl]-5-[(4-oxo-1,2,3-benzotriazin-3(4H)-yl)methyl]cyclopentanecarboxylic acid (enantiomer 2)] |
